Test results taken from patent US11447486B2, “2-amino-benzimidazole derivatives and their use as 5-lipoxygenase and/or prostaglandin E synthase inhibitors” (INSTITUT PASTEUR KOREA, priority 2014, dated 2022).
Read-outs that look alike come from different tables or passages of the source.

Legend:
human 5-LOX = target: T1, human 5-LOX (Homo sapiens, UniProt P09917); assay: 5-LOX enzyme activity, fluorescence method (5-HPETE, H2DCFDA); assay type: biochemical; conditions: read-out: 5-LO (IC50)
T1 construct: purchased Cayman 60402; host or cells: insect cells (lysate)
T1 sequence (P09917 1-674): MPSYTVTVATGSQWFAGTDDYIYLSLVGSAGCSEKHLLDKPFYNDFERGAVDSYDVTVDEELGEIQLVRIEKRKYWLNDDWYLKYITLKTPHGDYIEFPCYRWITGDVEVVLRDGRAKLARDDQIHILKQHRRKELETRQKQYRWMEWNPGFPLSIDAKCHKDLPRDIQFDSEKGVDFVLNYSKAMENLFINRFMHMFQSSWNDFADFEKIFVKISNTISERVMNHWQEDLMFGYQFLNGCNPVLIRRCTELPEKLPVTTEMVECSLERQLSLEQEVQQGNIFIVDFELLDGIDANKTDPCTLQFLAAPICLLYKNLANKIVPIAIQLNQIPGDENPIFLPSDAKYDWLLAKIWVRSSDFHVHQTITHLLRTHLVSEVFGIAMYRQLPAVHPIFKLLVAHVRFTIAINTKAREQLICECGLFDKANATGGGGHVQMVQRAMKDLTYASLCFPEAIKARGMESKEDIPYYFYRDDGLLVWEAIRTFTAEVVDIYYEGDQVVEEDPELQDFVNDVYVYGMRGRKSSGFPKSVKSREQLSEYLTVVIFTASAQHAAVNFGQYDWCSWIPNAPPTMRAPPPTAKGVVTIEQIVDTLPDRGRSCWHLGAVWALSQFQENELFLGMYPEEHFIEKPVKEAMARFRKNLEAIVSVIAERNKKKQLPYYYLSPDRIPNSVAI
How it was run: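 Compound (0.5 nM to 10 uM) pre-incubated 5 min with enzyme; reaction started with ATP (100 uM final) and arachidonic acid (3 uM final). All steps at room temperature, fluorescence read-out.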

[1] = system: Rat basophilic leukemia (RBL) cells; assay: LTB4 secretion assay in RBL (rat basophilic leukemia cells); assay type: cell-based
How it was run: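 Cells seeded 2×10^4/well the day before, then pre-incubated 15 min at 37 °C in EMEM/0.5% FBS with compound (5 nM to 100 uM). Stimulation with 2.5 uM arachidonic acid plus 5 uM A23187 (final) for 10 min at 37 °C; LTB4 in supernatant quantified by EIA.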

Compound | IC50 (human 5-LOX) [µM] | EC50 ([1]; Rattus norvegicus, RBL) [µM] | EC50 [1] [µM]
Cc1cnc(Oc2ccc(CNc3nc4ccc(NC5COC5)cc4n3C)cc2)nc1 [Compound 349] | < 1 | < 10 | 
COCCN(Cc1ccc(Oc2ccc(Cl)cn2)cc1)c1nc2ccc(N)cc2n1C [Compound 338] | < 1 | > 20 | 
COc1ccc(Oc2ccc(CNc3nc4ccc(NC5COC5)cc4n3C)cc2)nc1 [Compound 331] | < 1 | < 10 | 
CC(CC(F)(F)F)Nc1ccc2[nH]c(NCc3ccc(Oc4ccc(Cl)cc4)cc3)nc2c1 (stereo not drawn) [Compound 134] | < 1 | < 10 | 
CC(C)(CO)Nc1nc2ccc(N)cc2n1Cc1ccc(Oc2ccc(Cl)cc2)cc1 [Compound 187] | < 1 | < 10 | 
Cn1c(NCc2ccc(Oc3ccnc4c(Cl)cccc34)cc2)nc2ccc(NC3COC3)cc21 [Compound 388] | < 1 | 10 to 20 | 
Cn1c(NCc2ccc(Oc3ncc(Cl)cn3)cc2)nc2ccc(NC3CNC3)cc21 [Compound 407] | < 1 | < 10 | 
FC1(F)CN(c2ccc3nc(NCc4ccc(Oc5ccc(Cl)cc5)cc4)[nH]c3c2)C1 [Compound 242] | 1 to 10 | < 10 | 
Cn1c(NCc2ccc(OCc3ncco3)cc2)nc2ccc(N)cc21 [Compound 342] | < 1 | < 10 | 
COCCN(Cc1ccc(Oc2ccc(Cl)cn2)cc1)c1nc2ccc(NC3COC3)cc2n1C [Compound 339] | < 1 | 10 to 20 | 
Nc1ccc2nc(NCCC(F)(F)F)n(Cc3ccc(Oc4ccc(Cl)cc4)cc3)c2c1 [Compound 264] | < 1 | < 10 | 
Cc1cc(Nc2ccc3nc(NCc4ccc(Oc5ncc(Cl)cn5)cc4)[nH]c3c2)n[nH]1 [Compound 484] | < 1 |  | > 20
Cn1c(NCc2ccc(Oc3nc4ccc(Cl)cc4n3C)cc2)nc2ccc(N)cc21 [Compound 428] | < 1 | < 10 | 
Cc1cc(CNc2nc3ccc(N)cc3n2C)cc(C)c1Oc1ncc(Cl)cn1 [Compound 411] | < 1 | > 20 | 
CC(Cc1ccc(Cl)cc1Cl)Nc1nc2cc(N)ccc2n1Cc1ccccc1 (stereo not drawn) [Compound 144] | < 1 | 10 to 20 | 
Cn1nccc1-c1ccc(CNc2nc3cc(N)ccc3[nH]2)cc1 [Compound 200] | < 1 | < 10 | 
CCC(Nc1nc2ccc(N)cc2n1C)c1ccc(Oc2ncc(Cl)cn2)cc1 (stereo not drawn) [Compound 452] | < 1 | < 10 | 
Cc1cc(Nc2ccc3nc(NC4(c5ccc(Oc6ncc(Cl)cn6)cc5)CC4)n(C)c3c2)n[nH]1 [Compound 478] | < 1 | < 10 | 
Cn1c(NCc2ccc(Oc3ncc(Cl)cn3)cc2F)nc2ccc(N)cc21 [Compound 380] | < 1 | < 10 | 
FC(F)(F)Oc1ccc(OCCn2c(N3CCCC3)nc3cc(N4CCC4)ccc32)cc1 [Compound 85] | 1 to 10 | > 20 | 
Cn1c(N2CCC(c3ccc(OC(F)(F)F)cc3)CC2)nc2ccc(N)cc21 [Compound 157] | < 1 | > 20 | 
Cn1c(NCCOc2ccc(Cl)c(Cl)c2)nc2cc(N)ccc21 [Compound 61] | < 1 | 10 to 20 | 
CCC(Nc1nc2ccc(N)cc2n1C)c1ccc(Oc2ccc(Cl)cn2)cc1 (stereo not drawn) [Compound 274] | < 1 | < 10 | 
Cn1c(NCc2ccc(Oc3ncc(Cl)cn3)cc2)nc2ccc(NC3C[S+]([O-])C3)cc21 (stereo not drawn) [Compound 386] | 1 to 10 | > 20 | 
COCCNc1ccc2nc(NCc3ccc(Oc4ccc(Cl)cn4)cc3)n(C)c2c1 [Compound 316] | < 1 | < 10 | 
Cn1c(NCc2ccc(Oc3ncc(Cl)c4ccccc34)cc2)nc2ccc(NC3COC3)cc21 [Compound 400] | < 1 | < 10 | 

Compound | IC50 (human 5-LOX) [µM] | EC50 ([1]; Rattus norvegicus, RBL) [µM] | EC50 [1] [µM]
Cn1c(NCc2ccc(Oc3ncc(Cl)cn3)cc2)nc2ccc(Nc3n[nH]cc3C(=O)NC3CC3)cc21 [Compound 483] | < 1 | > 20 | 
CC(C)(CO)Nc1ccc2[nH]c(NCc3ccc(Cl)cc3F)nc2c1 [Compound 31] | < 1 | > 20 | 
Cn1c(NCc2ccc(Oc3ncc(Br)cn3)cc2)nc2ccc(N)cc21 [Compound 361] | < 1 | < 10 | 
Clc1ccc(Oc2ccc(CNc3nc4ccc(NC5COC5)cc4n3C3COC3)cc2)nc1 [Compound 266] | < 1 | 10 to 20 | 
Cn1c(NCc2ccc(Oc3ncc4ccc(Cl)cc4n3)cc2)nc2ccc(N)cc21 [Compound 440] | < 1 | < 10 | 
CCn1c(NCc2ccc(Oc3ccc(Cl)cn3)cc2)nc2ccc(Nc3cc(C(F)(F)F)n(C)n3)cc21 [Compound 511] | > 10 | < 10 | 
Nc1ccc2[nH]c(NC(=O)c3ccc(F)cc3)nc2c1 [Compound 26] | 1 to 10 | > 20 | 
Fc1ccc(CCNc2nc3cc(NC4COC4)ccc3[nH]2)cc1 [Compound 33] | < 1 | < 10 | 
Nc1ccc2nc(NCc3ccc4cccnc4c3)[nH]c2c1 [Compound 159] | < 1 | > 20 | 
Cc1cc(Oc2ccc(Cl)cn2)ccc1CNc1nc2ccc(N)cc2n1C [Compound 290] | < 1 | < 10 | 
Cn1c(NCc2ccc(Oc3ncc(Cl)cc3F)cc2)nc2ccc(N)cc21 [Compound 323] | < 1 | < 10 | 
Nc1nc2ccc(N3CC(F)(F)C3)cc2n1Cc1ccc(Oc2ccc(Cl)cn2)cc1 [Compound 235] | > 10 | < 10 | 
Cn1c(NCc2ccc(Oc3ccc4cc(F)ccc4n3)cc2)nc2ccc(N)cc21 [Compound 382] | < 1 | < 10 | 
Cn1c(NCc2ccc(Oc3ncc4c(Cl)cccc4n3)cc2)nc2ccc(NC3COC3)cc21 [Compound 435] | < 1 | < 10 | 
Cn1c(NCc2ccc(Oc3ccnc4cc(Cl)ccc34)cc2)nc2ccc(N)cc21 [Compound 375] | < 1 | < 10 | 
Cn1c(NCc2ccc(Oc3cn4ccc(Cl)cc4n3)cc2)nc2ccc(N)cc21 [Compound 442] | < 1 | < 10 | 
Nc1cnc2nc(N3CCCC3)n(CCOc3ccc(OC(F)(F)F)cc3)c2c1 [Compound 83] | 1 to 10 | > 20 | 
Nc1ccc2nc(NCc3ccc(Oc4ccc(Cl)cn4)cc3)n(CCO)c2c1 [Compound 259] | < 1 | < 10 | 
Cn1c(NCc2ccc(Oc3ccc(OC(F)(F)F)cn3)cc2)nc2ccc(N)cc21 [Compound 377] | < 1 | < 10 | 
CN(C)CCn1c(NCc2ccc(Oc3ccc(Cl)cn3)cc2)nc2ccc(N)cc21 [Compound 286] | < 1 | < 10 | 
CN(C)c1nc2cc(NCc3ccc(-c4ncco4)cc3)ccc2[nH]1 [Compound 220] | < 1 | < 10 | 
Cn1c(NCc2ccc(Oc3ccccn3)cc2)nc2ccc(N)cc21 [Compound 346] | < 1 | < 10 | 
Cn1c(NCN2CC(Cc3ccccc3)OC2=O)nc2ccc(N)cc21 (stereo not drawn) [Compound 174] | 1 to 10 | > 20 | 
CC(C)(C(O)c1ccc(CNc2nc3ccc(N)cc3[nH]2)cc1)C(F)(F)F (stereo not drawn) [Compound 198] | < 1 | 10 to 20 | 
CCC(Nc1nc2ccc(Nc3cc(C(F)(F)F)n(C)n3)cc2n1C)c1ccc(Oc2cnc(C(F)(F)F)cn2)cc1 (stereo not drawn) [Compound 522] | > 10 | < 10 | 
